Experimental data reported in the Bradley open melting point set (2014).
Several values for one entry are separate records, joined by “and”; a condition that tells them apart may be missing. Identical values can stand only once.

For `O=C(O)COCCNC(=O)C12CC3CC(CC(C3)C1)C2`, the melting point was 122 °C. In the case of `O=C(OC)\C1=C(\N/C(=C(/C(=O)OC)C1c2ccccc2[N+]([O-])=O)C)C` [nifedipine], the melting point is reported as 173 °C. Work on `N#CCCCC#N` [glutaronitrile] yielded a melting point of -29 °C. `CS(C)(=O)=O` [dimethyl sulfone] gave a melting point of 110 °C. In the case of `Clc1ccc(C(c2ccc(Cl)cc2)C(Cl)(Cl)Cl)cc1` [1,1'-(2,2,2-Trichloroethane-1,1-diyl)bis(4-chlorobenzene)], the melting point is reported as 108 °C. With `c1ccc(-c2c3ccccc3c(-c3ccccc3)c3ccccc23)cc1` [9,10-Diphenylanthracene] the melting point was 249 °C. In the case of `CCCCCCC(O)CO` (stereo not drawn) [1,2-octanediol], the melting point is reported as 31 °C. Compound `Cc1c[nH]c(=O)[nH]c1=O` [thymine] has a melting point of 317 °C. Compound `COc1ccc(C=O)cc1OC` [veratraldehyde] has a melting point of 44 °C. `O=C(CS(=O)C(c1ccccc1)c1ccccc1)NO` (stereo not drawn) [adrafinil] showed a melting point of 159 °C. With `CN1CC[C@@H](c2ccc(F)cc2)[C@H](CO)C1` [(3S,4R)-4-(4-fluorophenyl)-1-methyl-3-piperidinemethanol] the melting point was 96 °C. Compound `Oc1ccc(F)cc1Cl` [2-chloro-4-fluorophenol] has a melting point of 22 °C. In the case of `O=C(O)c1ccc([N+](=O)[O-])cc1Cl` [2-chloro-4-nitrobenzoic acid], the melting point is reported as 142 °C. In the case of `CNN` [Methylhydrazine], the melting point is reported as -80 °C. Work on `N#Cc1cc(Cl)ccc1Cl` [2,5-dichlorobenzonitrile] yielded a melting point of 130 °C. Compound `CC(C)Cc1ccc(C(C)C(=O)O)cc1` (stereo not drawn) [(+/+)-ibuprofen] has a melting point of 74.6 °C. `O=Cc1ccc(Cl)cc1` [p-chlorobenzaldehyde] showed a melting point of 46 °C. Compound `Cc1ccc(CNC2=CC(=O)c3ccccc3C2=O)nc1` [2-{[(5-methylpyridin-2-yl)methyl]amino}naphthalene-1,4-dione] has a melting point of 135 °C. In the case of `Brc1ccccc1` [bromobenzene], the melting point is reported as -31 °C. In the case of `CC1=C(C)C(C)N=N1` (stereo not drawn) [1H-pyrazole, 3,4,5-trimethyl-], the melting point is reported as 138 °C. Compound `c1ccc2c(c1)sc1ccccc12` [dibenzothiophene] has a melting point of 99 °C. For `O=[N+]([O-])c1cc(I)c(O)c(I)c1` [2,6-Diiodo-4-nitrophenol], the melting point was 157 °C. With `O=C1/C(=C\c2ccco2)SC(=S)N1CN1CCCCC1` the melting point was 121 °C. Work on `C=CC(=O)OCC(CC)CCCC` (stereo not drawn) [2-ethylhexyl acrylate] yielded a melting point of -90 °C. In the case of `CC12CCC=C1C1CCC3CC(O)CCC3(C)C1CC2` (stereo not drawn) [androst-14-en-3-ol], the melting point is reported as 130 °C. `CC1=C(/C=C/C(C)=C/C=C/C(C)=C/C(=O)O)C(C)(C)CCC1` [retinoic acid] showed a melting point of 181 °C. `CN1/C(=C(\O)Nc2ccccn2)C(=O)c2ccccc2S1(=O)=O` [Piroxicam] gave a melting point of 198 °C. Compound `O=C(c1ccc(Br)cc1)c1ccc(Br)cc1` [p,p'-dibromobenzophenone] has a melting point of 175 °C. `Fc1ccccc1F` [1,2-difluorobenzene] showed a melting point of -34 °C. For `Oc1ccccc1O` [1,2-Dihydroxybenzene], the melting point was 105 °C. `O=C=NC1CCCCC1` [cyclohexyl isocyanate] gave a melting point of -80 °C. `COc1ccc(OC)cc1` [1,4-Dimethoxybenzene] gave a melting point of 58 °C. Compound `COc1ccc2c(c1)CCCC2=O` [6-methoxy-1-tetralone] has a melting point of 79 °C. In the case of `Cc1ccc([N+](=O)[O-])c(C)c1` [2,4-Dimethyl-1-nitrobenzene], the melting point is reported as 7 °C. For `CCCCCCCCCCCCCCCCCC(=O)O` [stearic acid], the melting point was 71 °C. Compound `NC(=O)c1ccc(CO)cc1` [p-hydroxymethyl_benzamide] has a melting point of 135 °C. For `[O-][P+](c1ccccc1)(c1ccccc1)C1C=C(c2ccccc2)C=C(c2ccccc2)O1` (stereo not drawn) [(4,6-diphenyl-2H-pyran-2-yl)(diphenyl)phosphane oxide], the melting point was 152 °C. For `O=Cc1coc2ccccc2c1=O` [chromone-3-carboxaldehyde], the melting point was 152 °C. `CN(C)C(=O)Nc1ccccc1` [fenuron] gave a melting point of 134 °C. In the case of `OC[C@@H](O)[C@@H](O)[C@@H](O)CO` [D-Ribitol], the melting point is reported as 102 °C. `N#CCc1ccccc1CC#N` [1,2-phenylenediacetonitrile] showed a melting point of 59 °C. In the case of `C[C@]12CCC(=O)C=C1CC[C@@H]1[C@@H]2CC[C@@]2(C)[C@H]1CC[C@]2(C)O` [methyltestosterone], the melting point is reported as 164 °C. Compound `COc1ccc(OC)c(S(N)(=O)=O)c1` [2,5-dimethoxybenzenesulfonamide] has a melting point of 147 °C. Compound `CCCCCCCCCCC(=O)O` [undecanoic acid] has a melting point of 28.6 °C. `ClC(c1ccccc1)c1ccccc1` [benzhydryl chloride] showed a melting point of 19 °C. Compound `CCOC(=O)CNC(=O)c1ccccc1` [ethyl hippurate] has a melting point of 59 °C. For `Oc1ccccc1-c1ccccc1` [Biphenyl-2-ol], the melting point was 57 °C. Work on `CCCCCC(=O)O` [Hexanoic acid] yielded a melting point of -3 °C. `O=C(O)CC(O)(CC(=O)O)C(=O)O` [citric acid, anhydrous] showed a melting point of 154 °C. Work on `Cc1cccc(C)c1[N+](=O)[O-]` [2-nitro-1,3-dimethylbenzene] yielded a melting point of 16 °C. Compound `COc1cc(C(C)=O)ccc1F` [4'-fluoro-3'-methoxyacetophenone] has a melting point of 52 °C. Compound `CCOC(=O)O[C@]1(C(=O)OCCl)CC[C@H]2[C@@H]3CCC4=CC(=O)C=C[C@]4(C)[C@H]3[C@@H](O)C[C@@]21C` [Loteprednol] has a melting point of 222 °C. `COc1ccc(C(=O)CC#N)cc1` [4-methoxybenzoylacetonitrile] showed a melting point of 128 °C. `CCC1(OC(C)=O)CCC2(C)C(CCC3C4CCC(=O)C4(C)CCC32)C1` (stereo not drawn) [3-ethyl-17-oxoandrostan-3-yl acetate] showed a melting point of 126 °C. `O=c1c2ccccc2oc2ccccc12` [xanthone] gave a melting point of 176 °C. `O=C(O)CC(O)C(=O)O` (racemic) [dl-malic acid] gave a melting point of 132 °C. `COc1ccc(C(O)C(=O)O)cc1` (stereo not drawn) [4-methoxymandelic acid] showed a melting point of 107 °C. Work on `COc1ccccc1OC` [veratrole] yielded a melting point of 22 °C. `CCC1(C2=CCCCCC2)C(=O)NC(=O)NC1=O` [Heptabarbital] showed a melting point of 174 °C. `CC(=O)N1CCN(c2ccc(OC[C@H]3CO[C@](Cn4ccnc4)(c4ccc(Cl)cc4Cl)O3)cc2)CC1` [ketoconazol] gave a melting point of 146 °C. For `CCOC(=O)CC#N` [ethyl_cyanoacetate], the melting point was -22 °C. `O=Cc1ccc([N+](=O)[O-])cc1[N+](=O)[O-]` [2,4-dinitrobenzaldehyde] gave a melting point of 67 °C. `Cn1ccnc1I` [2-iodo-1-methylimidazole] showed a melting point of 81 °C. With `Cc1ccc(C)c(O)c1` [2,5-dimethylphenol] the melting point was 74.8 °C and 76 °C. In the case of `COc1ccc(C(=O)c2ccccc2)cc1` [4-methoxybenzophenone], the melting point is reported as 62 °C. `O=Cc1ccc(Cl)cc1` [4-Chlorobenzaldehyde] showed a melting point of 46 °C. In the case of `NC1=NN(c2ccccc2)CC1` [3-amino-4,5-dihydro-1-phenyl-1h-pyrazole], the melting point is reported as 169 °C. For `OCC#CCO` [But-2-yne-1,4-diol], the melting point was 57 °C. Work on `Nc1ccc(N)nc1` [2,5-diaminopyridine] yielded a melting point of 96 °C. In the case of `CCCCCCCCCCCCCl` [1-chlorododecane], the melting point is reported as -9 °C. `CCCCCCCCCCCCCCCCCCCCCCC` [Tricosane] gave a melting point of 49 °C. In the case of `COCc1ccccc1` [benzyl_methyl_ether], the melting point is reported as -52 °C. In the case of `Cl/C=C\Cl` [cis-1,2-dichloroethylene], the melting point is reported as -80 °C.
